Values quoted from earlier work as cited in patent US20030216458A1, “Combination therapy for the treatment of migraine” (priority 1999, published 2003).

Settings: anaesthetized dog

SMILES: CNS(=O)(=O)Cc1ccc2[nH]cc(CCN(C)C)c2c1 [Sumatriptan]
- effect on carotid vascular resistance: selective increase in carotid vascular resistance
